In assay [1] the test system is rabbits. The assay can be described thus: McGinty test (agonist, test compound alone). The format is in vivo, rabbit.
Experimental: (§2) Progestational activity and antiprogestational activity were determined in rabbits by means of the McGinty test (test compound alone, procedure of McGinty et al., Endocrinology, 24:829-832 (1939)) or anti-McGinty test (test compound plus progesterone, procedure of Tamara et al., Jpn. J. Fertil. Steril. 24:48-81 (1979)). Results were scored according to McPhail (McPhail, J. Physiol., 83:146 (1934)).
For assay [2], the system named is Human T-47D breast cells. The assay can be described thus: T-47D cell proliferation, antagonist format (inhibition of 0.15 nM R5020-mediated proliferation). It counts as cell-based. To be noted: T47D; for EC50: inhibition of 0.15 nM R5020-mediated proliferation, N.D. not detected; for Emax: maximum % inhibition, 0.15 nM R5020, read-out: Cell Proliferation Antagonist maximum % Inhib. On the procedure:
(§1) Human T-47D breast cells grown in nutrient media were incubated with the standard progestin R5020 alone or with R5020 plus test compound and then assessed by standard procedures for proliferation using incorporation of [^3 H]-thymidine as the measurement. […] The maximum % inhibition (a measure of the efficacy of the compounds) is also given. In the agonist format of this assay the compounds were tested at concentrations ranging from 0.01 to 10 nM and the maximum % stimulation at any dose is listed in Table 2. […] However, the presence of a very polar hydroxyl group in the 17α-position greatly diminishes antiprogestational activity and this holds even when the OH is separated from the 17-carbon atom by a methylene group.

The subject of assay [3] is Human T-47D breast cells. Nature of the assay: T-47D cell proliferation, agonist format. It counts as cell-based. To be noted: T47D, 0.01 to 10 nM, maximum at any dose, read-out: Cell Proliferation Agonist maximum % Stim. On the procedure: as §1
The target of assay [4] is progestin receptor (hPR). Nature of the assay: progestin receptor binding. To be noted: cytosol from human T-47D breast cells; [3H]-R5020; read-out: Receptor Binding Affinity hPR IC50.
Text: However, the receptors were of human origin and a different radioligand was used. Thus, for progestin receptor binding the receptor was obtained in cytosol from human T-47D breast cells and [^3 H]-R5020 was used as the radioligand. Data are expressed as IC50 values, i.e., the concentration of compound that inhibits the radioligand binding by 50%.
Assay [5] has as its system rabbits. Nature of the assay: anti-McGinty test (antagonist, test compound plus progesterone). The format is in vivo, rabbit.
Experimental: as §2

Where “and” joins values, the source holds several entries; their conditions need not be identical. Equal values may be shown once.

For `CCC(=O)O[C@]1(C(C)=O)CC[C@H]2[C@@H]3CCC4=CC(=O)CCC4=C3[C@@H](c3ccc4c(ccn4C)c3)C[C@@]21C` [11β-(1-Methylindol-5-yl)-17α-propionyloxy-19-norpregna-4,9-diene-3,20-dione], the “McPhail Index, McGinty Assay (Agonist)” value in assay [1] (dose 0.3 micrograms), in assay [1] (dose 3 micrograms) and in assay [1] (dose 30 micrograms) was 0 +/- 0 in each case. The molecule also returned a half-maximal effective concentration (EC50) in assay [2] of 2.4 nM. In addition, the Emax was 107% in assay [2] and 7% in assay [3]. Further, the IC50 in assay [4] is 2.3 nM.

Regarding `CC(=O)[C@@]1(O)CC[C@H]2[C@@H]3CCC4=CC(=O)CCC4=C3[C@@H](c3ccc(N(C)C)cc3)C[C@@]21C` [I 4-Me2 N H O H --OH H], the “McPhail Index, McGinty Assay (Agonist)” value in assay [1] (dose 0.3 micrograms), in assay [1] (dose 3 micrograms) and in assay [1] (dose 30 micrograms) was 0 +/- 0 throughout. The Emax in assay [2] stood at 29%; in assay [3], 4%. Also, the IC50 in assay [4] was determined as 26 nM. The “McPhail Index, McGinty Assay (Antagonist)” value in assay [5] (dose 0.3 micrograms, plus progesterone) is recorded as 2.8 +/- 0; in assay [5] (dose 3 micrograms, plus progesterone), 2.4 +/- 0.4; in assay [5] (dose 30 micrograms, plus progesterone), 2.1 +/- 0.4.

Regarding `CC(=O)O[C@]1(C(C)=O)CC[C@H]2[C@@H]3CCC4=CC(=O)CCC4=C3[C@@H](c3ccc(N(C)C)nc3)C[C@@]21C` [17α-Acetoxy-11β-[2-(N,N-dimethylamino)pyrid-5-yl]-19-norpregna-4,9-diene-3,20-dione], the “McPhail Index, McGinty Assay (Agonist)” value in assay [1] (dose 0.3 micrograms), in assay [1] (dose 3 micrograms) and in assay [1] (dose 30 micrograms) was 0 +/- 0 each time. This molecule also came in with a 50% effective concentration (EC50) in assay [2] of 2.9 nM. For the same molecule, the Emax worked out at 92% in assay [2] and 5% in assay [3]. The half-maximal inhibitory concentration (IC50) in assay [4] is 11 nM.

For the molecule `COC[C@]1(C(C)=O)CC[C@H]2[C@@H]3CCC4=CC(=O)CCC4=C3[C@@H](c3ccc(N(C)C)cc3)C[C@@]21C` [I 4-Me2 N H O H --CH2 OCH3 H, 11β-(4-(N,N-dimethylamino)phenyl)-17α-methoxymethyl-19-norpregna-4,9-diene-3,20-dione], the “McPhail Index, McGinty Assay (Agonist)” value in assay [1] (dose 0.3 micrograms) was 1.3 +/- 0.5; in assay [1] (dose 3 micrograms), 1.8 +/- 0.6; in assay [1] (dose 30 micrograms), 1.3 +/- 0.8. The molecule also gave an EC50 in assay [2] of 0.3 nM. The Emax was 106% in assay [2] and 12% in assay [3]. In addition, in assay [4], the IC50 turned out to be 3.2 nM. In addition, in assay [5] (rabbit, in vivo), the “McPhail Index, McGinty Assay (Antagonist)” value is 3.2 +/- 0.1 and 1.7 +/- 0.8 and 1.7 +/- 0.3.

In the case of `CC(=O)[C@H]1CC[C@H]2[C@@H]3CCC4=CC(=O)CC[C@]4(C)[C@H]3CC[C@]12C` [Progesterone, reference compound], the “McPhail Index, McGinty Assay (Agonist), progesterone” value in assay [1] (progesterone control, printed under first dose column, own dose not stated) was 2.45 +/- 0.14. Also, the half-maximal inhibitory concentration (IC50) in assay [4] worked out at 3.3 nM. Further, the “McPhail Index, McGinty Assay (Antagonist), progesterone (Standard)” value in assay [5] (progesterone standard, printed under first dose column, own dose not stated) is recorded as 2.45 +/- 0.14.

Take `COC(=O)[C@]1(C(C)=O)CC[C@H]2[C@@H]3CCC4=CC(=O)CCC4=C3[C@@H](c3ccc(N(C)C)cc3)C[C@@]21C` [I 4-Me2 N H O H COOCH3 H, 17α-carbomethoxy-11β-(4-(N,N-dimethylamino)phenyl)-19-norpregna-4,9-diene-3,20-dione]: the figures for the “McPhail Index, McGinty Assay (Agonist)” value in assay [1] (dose 0.3 micrograms), in assay [1] (dose 3 micrograms) and in assay [1] (dose 30 micrograms) were 0 +/- 0, 0 +/- 0 and 0.07 +/- 0.07, respectively. Further, the midpoint of the response in assay [2], the EC50, lay at 0.4 nM. Besides, the values for the Emax in assay [2] and in assay [3] were 92% and 24%, respectively. Besides, the IC50 in assay [4] worked out at 0.7 nM.

With `COc1ccc([C@H]2C[C@@]3(C)[C@@H](CC[C@]3(OC(C)=O)C(C)=O)[C@@H]3CCC4=CC(=O)CCC4=C32)cc1` [I 4-CH3 O H O H --O--CO--CH3 H, 17α-Acetoxy-11β-(4-methoxyphenyl)-19-norpregna-4,9-diene-3,20-dione], the “McPhail Index, McGinty Assay (Agonist)” value was 1.5 +/- 0.2 in assay [1] (dose 0.3 micrograms), 1.5 +/- 0.6 in assay [1] (dose 3 micrograms) and 1.5 +/- 0.7 in assay [1] (dose 30 micrograms). Besides, in assay [1] (in words), the “progestational activity, McGinty test” value is “both agonist and antagonist properties”. The concentration giving a half-maximal response (EC50) in assay [2] turned out to be 0.3 nM. Besides, the Emax in assay [2] is 119%; in assay [3], 2%. For the same molecule, the concentration for half-maximal inhibition (IC50) in assay [4] came out at 0.8 nM. Moreover, the “antiprogestational activity, anti-McGinty test” value in assay [5] (in words) is “both agonist and antagonist properties”.

In the case of `CCC(=O)O[C@]1(C(C)=O)CC[C@H]2[C@@H]3CCC4=CC(=O)CCC4=C3[C@@H](c3ccc(N(C)C)cc3)C[C@@]21C` [I 4-Me2 N H O H --O--CO--C2 H5 H, 11β-[4-(N,N-dimethylamino)phenyl]-17α-propionyloxy-19-norpregna-4,9-diene-3,10-dione], the “McPhail Index, McGinty Assay (Agonist)” value in assay [1] (dose 0.3 micrograms), in assay [1] (dose 3 micrograms) and in assay [1] (dose 30 micrograms) was 0 +/- 0 each time. Moreover, the concentration giving a half-maximal response (EC50) in assay [2] was 0.4 nM. Also, the Emax was found to be 110% in assay [2] and 4% in assay [3]. Also, in assay [4], the 50% inhibitory concentration (IC50) was determined as 1.3 nM.

On to `CCC(=O)O[C@]1(C(C)=O)CC[C@H]2[C@@H]3CCC4=CC(=O)CCC4=C3[C@@H](c3ccc(N4CCCC4)cc3)C[C@@]21C` [17α-Propionyloxy-11β-[4-(N-pyrrolidino)phenyl-19-norpregna-4,9-diene-3-20-dione], for which the “McPhail Index, McGinty Assay (Agonist)” value is recorded as 0 +/- 0 in assay [1] (dose 0.3 micrograms), 0 +/- 0 in assay [1] (dose 3 micrograms) and 0.1 +/- 0.1 in assay [1] (dose 30 micrograms). The molecule also yielded an EC50 in assay [2] of 0.9 nM. In addition, the Emax in assay [2] is 107%; in assay [3] it was -1%. In addition, the IC50 in assay [4] came out at 4.8 nM.

As for `CCC(=O)O[C@]1(C(C)=O)CC[C@H]2[C@@H]3CCC4=CC(=O)CCC4=C3[C@@H](c3ccc(N4CCCCC4)cc3)C[C@@]21C` [11β-(4-(N-piperidino)phenyl)-17α-propionyloxy-19-norpregna-4,9-diene-3,20-dione], the “McPhail Index, McGinty Assay (Agonist)” value in assay [1] (dose 0.3 micrograms), in assay [1] (dose 3 micrograms) and in assay [1] (dose 30 micrograms) was 0 +/- 0 each time. In addition, the midpoint of the response in assay [2], the EC50, lay at 1 nM. Moreover, the Emax in assay [2] is 111%; in assay [3] it was -16%. Besides, the 50% inhibitory concentration (IC50) in assay [4] was found to be 2 nM.

For the molecule `CC(=O)[C@@]1(OC(=O)c2ccccc2)CC[C@H]2[C@@H]3CCC4=CC(=O)CCC4=C3[C@@H](c3ccc(N(C)C)cc3)C[C@@]21C` [I 4-Me2 N H O H --O--CO--C6 H5 H, 11β-[4-(N,N-Dimethylamino)phenyl]-17α-benzoyloxy-19-norpregna-4,9-diene-3,20-dione], the “McPhail Index, McGinty Assay (Agonist)” value in assay [1] (dose 0.3 micrograms), in assay [1] (dose 3 micrograms) and in assay [1] (dose 30 micrograms) was 0 +/- 0 throughout. Besides, a half-maximal effect in assay [2] (EC50) was put at 6.4 nM. Also, the Emax stood at 69% in assay [2] and 18% in assay [3]. The IC50 in assay [4] is 24 nM.

`CC[C@]1(C(C)=O)CC[C@H]2[C@@H]3CCC4=CC(=O)CCC4=C3[C@@H](c3ccc(N(C)C)cc3)C[C@@]21C` [I 4-Me2 N H O H C2 H5 H, 11β-[4-(N,N-dimethylamino)phenyl]-17α-ethyl-19-norpregna-4,9-diene-3,20-dione]: the “McPhail Index, McGinty Assay (Agonist)” value in assay [1] (dose 0.3 micrograms) was 0.2 +/- 0.1; in assay [1] (dose 3 micrograms), 0.3 +/- 0.2; in assay [1] (dose 30 micrograms), 0.3 +/- 0.26. Besides, the 50% effective concentration (EC50) in assay [2] is 0.3 nM. The Emax in assay [2] turned out to be 110%; in assay [3], 8%. In addition, in assay [4], the concentration for half-maximal inhibition (IC50) stood at 0.6 nM.

`CC(=O)[C@@]1(OC(=O)Cc2ccccc2)CC[C@H]2[C@@H]3CCC4=CC(=O)CCC4=C3[C@@H](c3ccc(N(C)C)cc3)C[C@@]21C` [I 4-Me2 N H O H O--CO--CH2 C6 H5 H, 11β-[4-(N,N-Dimethylamino)phenyl]-17α-phenylacetoxy-19-norpregna-4,9-diene-3,20-dione]: in assay [2], it took 1.9 nM to reach a half-maximal effect (EC50) and the Emax is 99%. Also, the Emax in assay [3] turned out to be 16%. The IC50 in assay [4] was determined as 7.9 nM.

On to `CC(=O)O[C@]1(C(C)=O)CC[C@H]2[C@@H]3CCC4=CC(=O)CCC4=C3[C@@H](c3ccc4c(c3)CCN4C)C[C@@]21C` [17α-Acetoxy-11β-(1-methyl-2,3-dihydroindol-5-yl)-19-norpregna-4,9-diene-3,20-dione], for which the figures for the “McPhail Index, McGinty Assay (Agonist)” value in assay [1] (dose 0.3 micrograms), in assay [1] (dose 3 micrograms) and in assay [1] (dose 30 micrograms) were 0.6 +/- 0.1, 0.2 +/- 0.1 and 0.2 +/- 0.1, respectively. The molecule also showed an EC50 in assay [2] of 1.5 nM. Besides, the figures for the Emax in assay [2] and in assay [3] were 103% and 6%, respectively. Moreover, the IC50 in assay [4] amounted to 2 nM.

Take `C#C[C@]1(C(C)=O)CC[C@H]2[C@@H]3CCC4=CC(=O)CCC4=C3[C@@H](c3ccc(N(C)C)cc3)C[C@@]21C` [I 4-Me2 N H O H --CCH H, 11β-(4-(N,N-Dimethylamino)phenyl)-17α-ethynyl-19-norpregna-4,9-diene-3,20-dione]: the “McPhail Index, McGinty Assay (Agonist)” value is given as 0.1 +/- 0.1 in assay [1] (dose 0.3 micrograms), 0.2 +/- 0.2 in assay [1] (dose 3 micrograms) and 0.2 +/- 0.2 in assay [1] (dose 30 micrograms). The EC50 in assay [2] came out at 0.4 nM. Further, the Emax in assay [2] was found to be 101%; in assay [3] it was 12%. In addition, the IC50 in assay [4] is 2.5 nM.

What is called EC50 is the concentration giving half of the maximal effect. Read a high EC50 as a less potent agent. Usually IC50 stands for the concentration that gives 50% inhibition.

The values above are taken from US6020328A, “20-keto-11β-arylsteroids and their derivatives having agonist or antagonist hormonal properties” (Research Triangle Institute, priority 1998, dated 2000).
